Measured values: US5256690A, “Method for treating and controlling the symptoms of neurodegenerative disease and neuropsychopharmacological disorders” (Carter-Wallace, Inc., priority 1992, dated 1993)

Legend:
[1] = biological target: T1, strychnine-insensitive glycine receptors (Rattus norvegicus, UniProt P35439); settings: value used in the K calculation; read-out: dissociation constant KD of [3H]5,7DCKA; cited from earlier work
T1 construct: Brains are immediately removed and forebrains dissected; from tissue; host or cells: rat forebrain membranes (P2/P3 pellet, washed, frozen), male Sprague-Dawley

[2] = biological target: T1, strychnine-insensitive glycine receptors; experiment: biochemical; assay type: binding
Experimental: Male Sprague-Dawley rats weighing 150-200 g are housed under a 12-hour light/dark cycle with access to food and water ad libitum. Animals are anesthetized with CO2 and sacrificed by decapitation. Brains are immediately removed and forebrains dissected, weighed and placed in 10 volumes (original wet weight volume) of 5 mM Hepes/4.5 mM Tris buffer (HTS; pH 7.8) containing 0.32 M sucrose. Tissue preparation is performed at about 4° C unless otherwise stated. Tissues are homogenized using a Brinkmann Polytron (setting 6, 30 seconds), diluted to 50 volumes in HTS-sucrose, and centrifuged at 1,000 xg for 10 minutes. The resultant pellet (P1) is discarded and supernatant centrifuged at 20,000 xg for 20 minutes. The resultant pellet (P2) is resuspended in HTS and centrifuged at 8,000 xg for 20 minutes. The supernatant and outer buffy coat (remaining pellet core discarded) is centrifuged at 20,000 xg for 20 minutes. The resultant pellet (P2/P3) is resuspended in HTS containing 1 mM EDTA and centrifuged at 20,000 xg for 20 minutes. The P2/P3 pellet is resuspended in HTS and the "washing" procedure is repeated two more times. The P2/P3 pellet is then resuspended in 5 volumes of HTS, frozen on dry-ice and stored at -80° C. for at least 72 hours prior to binding assay.
At the time of the assay, the appropriate amount of tissue is thawed and resuspended in 50 mM Hepes-KOH buffer (pH 8.0 at 4° C.) and "washed" twice by resuspension and centrifugation at 20,000 xg for 20 minutes. The binding of [^3 H]5,7DCKA is performed as described by Baron et al. Env. J. Pharmacol 206: 149-154 (1991). Assays are performed at 4° C. using quadruplicate samples in a total volume/tube of 1-ml consisting of: 500 ul membrane suspension (200-300 ug protein/assay tube) in 50 mM Hepes-KOH buffer (pH 8.0 at 4° C.), 100 ul [^3 H]5,7DCKA solution (19-21 nM; specific activity 18.2 Ci/mmol), 100 ul drug or buffer, and 300 ul buffer. […] Felbamate, solutions of 10 mM and 100 mM, are dissolved in 40-50% and 100% DMSO, respectively, and serial dilutions are performed. Binding reactions are initiated by adding the tissue homogenate and terminated after a 15 minute incubation period by rapid filtration through Brandel GF/B filters using a Brandel M-24 cell harvester. This filtration is followed by two 5-ml rinses with ice-cold buffer. Radioactivity is monitored in a Beckman LS 5801 liquid scintillation counter.
Displacement curves and IC50 values were analyzed using Graphpad (ISI Software, Philadelphia, Pa.).

hippocampal slices = experiment: Hippocampal slice hypoxia model (evoked potential recovery); assay type: cell-based, rat; settings: for evoked potential (population spike) recovery: after one hour recovery
Experimental: Sprague-Dawley rats are briefly anesthetized with Halothane and then decapitated. The brain is removed and the hippocampus dissected. Transverse hippocampal brain slices of 475 microns are sectioned with a McIlwain tissue chopper. Slices are then incubated in a temperature controlled chamber of 34 degrees centigrade while being perfused with an artificial cerebral spinal fluid (NaCl 126 mM; KCl, 4; KH2 PO4, 1.4; MgSO4, 1.3; CaCl2, 2.4; NaHCO3, 26 and glucose, 4) saturated with 95% O2 and 5% CO2.
After an initial one hour equilibration period, the slices are tested for electrophysiological function. Electrical stimulation is given in the region of the CA3 collaterals with a bipolar twisted wire electrode. Evoked responses are recorded extracellularly in the pyramidal cell layer of the CA1 region. Stimulation is given for a duration of 40 microseconds in square wave pulses. The peak-to-peak amplitude of the resultant evoked potential response is then monitored.
Hippocampal slices from one animal are placed in two chambers. One chamber is used as a control and receives standard artificial cerebral spinal fluid (ACSF) while the second receives felbamate. In each chamber, one slice is stimulated every 30 seconds to monitor evoked potential response. Other slices in the chamber are not continuously stimulated. In these latter slices, designated as non-stimulated, the evoked potential response is assessed only at the beginning and end of the experiment. Only slices with initial evoked potentials of 3 mV or greater amplitude are included for testing.
The experimental chamber is perfused with oxygenated artificial cerebral spinal fluid (ACSF) containing felbamate for 30 minutes before the initiation of hypoxic conditions. The control chamber continues to receive oxygenated ACSF without felbamate during this period. Hypoxic conditions are then initiated simultaneously in both chambers by changing to perfusing media saturated with 95% N2 and 5% CO2. The experimental chamber receives nitrogenated ACSF with felbamate while the control chamber receives nitrogenated ACSF without felbamate.
The duration of hypoxic exposure for both chambers is determined by the disappearance of the hypoxic injury potential (HIP) in the control stimulated slice. This potential appears during hypoxia after the disappearance of the original evoked potential. Although hippocampal slices can vary in their temporal response to hypoxia, the HIP is a reliable marker of permanent hypoxic injury. For this reason, the disappearance of the HIP is chosen to determine length of hypoxic exposure. Hypoxia is continued in both chambers for 5 minutes beyond the disappearance of the HIP in the stimulated control slice.
After hypoxic exposure, slices are monitored through one hour of recovery with oxygenated ACSF. The felbamate chamber receives oxygenated ACSF with felbamate for the first 15 minutes of this recovery and then standard oxygenated ACSF for the remaining 45 minutes of recovery. After a one-hour recovery period, the percentage of evoked potential amplitude recovery is assessed in both stimulated and non-stimulated slices. This percentage is calculated as the evoked potential amplitude after recovery divided by the evoked potential amplitude prior to hypoxic exposure.
This protective action is assessed by several measures. First, evoked potential recovery is assessed in both stimulated and non-stimulated slices. Additionally, hypoxic protection is calculated for both stimulated and non-stimulated slices. This measure is calculated as the damage seen in control slices minus the damage seen in experimental (felbamate) slices divided by the damage seen in control slices. For these purposes damage is defined as 100 percent minus percent recovery. The determination of hypoxic protection helps take into account any survival seen in control slices. Lastly, counts of total surviving slices were made. […]

[3] = Preclinical margin of safety (protective index); assay type: in vivo; settings: preclinical profile
MES = settings: rats; cited from earlier work
metrazol = settings: rats; cited from earlier work

O=C(O)c1cc(O)c2c(Cl)cc(Cl)cc2n1 [[^3 H]5,7DCKA, [^3 H]5,7-dichlorokynurenic acid]
Kd [1]: 0.069 µM

NC(=O)OCC(COC(N)=O)c1ccccc1 [felbamate, 2-phenyl-1,3-propanediol dicarbamate]
IC50 ([2]; IC50, inhibition of [3H]5,7DCKA, 10 uM-10 mM, combined data of three experiments on a single graph, FIG. 2): 374 µM
IC50 ([2]; IC50 value (mean +/- SEM), mean of the felbamate displacement experiments): 477 ± 49 µM
Ki ([2]; K estimate for inhibition of [3H]5,7DCKA (mean +/- SEM), calculated, mean of experiments, FIG. 2): 368 ± 37 µM
Ki ([2]; K estimate for inhibition of [3H]5,7DCKA, calculated from IC50 of combined data): 289 µM
Hill slope ([2]; combined displacement data, FIG. 2): -0.93
mode of inhibition of [3H]5,7DCKA binding ([2]; rat forebrain membranes, FIG. 2): competitively inhibits
neuroprotection against hypoxia (hippocampal slices; 380 uM, 840 uM, 1,300 uM and 1,700 uM): Significant neuroprotection
counts of surviving stimulated slices (hippocampal slices; 1,300 and 1,700 uM, survival criterion 3 mV): substantial felbamate protection
toxicity for electrophysiological function (hippocampal slices; high concentration of felbamate): no evidence of toxicity
toxicity (permanent evoked potential loss) (hippocampal slices; pre-hypoxic incubation, felbamate perfusion): no evidence of toxicity
evoked potential (population spike) recovery (hippocampal slices; stimulated slices, 4 uM): 2%
evoked potential (population spike) recovery (hippocampal slices; stimulated slices, 190 uM): 6%
evoked potential (population spike) recovery (hippocampal slices; stimulated slices, 380 uM): 13%
evoked potential (population spike) recovery (hippocampal slices; stimulated slices, 840 uM): 46%
evoked potential (population spike) recovery (hippocampal slices; stimulated slices, 1,300 uM): 95%
delay of appearance of the hypoxic injury potential (HIP) (hippocampal slices; stimulated slices, 1,700 uM): 14.5 min
evoked potential (population spike) recovery (hippocampal slices; stimulated slices, 1,700 uM): 96%
effect on disappearance of the evoked potential (hippocampal slices; stimulated slices, 1,700 uM, hypoxia): did not affect
counts of surviving non-stimulated slices (hippocampal slices; survival criterion 3 mV): substantial protection
protective index [3]: 16.9-19.1
anticonvulsant ED50 for MES (MES): 46 mg/kg
anticonvulsant ED50 for metrazol (metrazol): 238 mg/kg
